# Columns and labels:
# [1] = system: MBP-induced EAE in Lewis rats; assay: Prevention of MBP-induced experimental allergic encephalomyelitis (EAE); type: in vivo; details: 100 mg/kg b.i.d. oral gavage, day 3 to day 16 post-inoculation
# Procedure: Experimental allergic encephalomyelitis (EAE) induced by injection of guinea pig myelin basic protein (MBP) or MBP peptide fragments is reported to be a useful model for MS. See, for example, D. E. McFarlin et al., “Recurrent Experimental Allergic Encephalomyelitis in the Lewis Rat,” The Journal of Immnunology, 113(2): 712-715 (1974).
# Female, Lewis rats of 8 weeks of age (180-250 g) were weighed and then given two intradermal injections (0.1 mL each) of 0.4 mg of M. tuberculin in 0.1 mL incomplete Freunds adjuvant and […] of myelin basic protein in 0.1 mL of saline into the base of the tail. Animals were weighed daily and given a clinical score beginning on Day 8, post inoculation, according to the following criteria:
# 2.5=Hind limb paralysis and front limb weakness
# 3.0=Hind and front limb paralysis
# 4.0=Moribund state or death
# On day 3, post-inoculation animals were administered b.i.d either a test compound (100 mg/kg) or 1% methylcellulose vehicle by oral gavage up to and including day 16.
# [2] = system: rats injected with Aβ(25-35) and ibotenate into the hippocampus; assay: Reduction of cognitive defects due to Aβ-peptide/ibotenate (Morris water maze); type: in vivo, Male Sprague-Dawley rats; details: 10 mg/kg oral gavage daily, Morris water maze 9-11 days after injection
# Procedure: The procedures employed in this example are similar to those described in Dornan et al., NeuroReport 5, 165-168 (1993). Male Sprague-Dawley rats (200-300 g) were weighed and given 10 mg/kg of α-(2-ethoxyphenyl)-N-tert-butylnitrone or 1% methylcellulose by oral gavage. One hour later, the rats were stereotaxically injected into the CA1 region of their hippocampus with 8 nmol of Aβ(25-35) and 6 nmol of ibotenate per side (coordinates from bregma −3.6=AP, ±2.2=ML, −3.0=DV from the top of the dura). Controls were injected with PBS (pH 7.4). All injections were 1.5 μL in volume. The animals receiving PBS were orally dosed with 1% methylcellulose. Oral dosing continued daily until the end of the Morris water maze testing.
# Nine to eleven days following injection, animals were tested in a Morris water maze task to measure spatial memory and learning. Animals were given three days of testing with four to six trials per day. The last trial on the fourth day was a probe trial where the platform was removed and time in quadrant and annulae crossings were determined. Following the behavioral testing, animals were perfused with 10% neutral formalin. The brain was post-fixed for 1 week in 10% formalin and then sliced for histological evaluation. Image analysis of cresyl violet staining was used to compare the neuronal loss (lesion volume) in the hippocampus between groups.
# MRL/MpJ Fas^lpr mice = assay: Reduction of cognitive deficits in autoimmune mice (T-maze task); type: in vivo; details: 100 mg/kg oral gavage daily for 8 to 9 weeks, Fas^lpr mice tested at 4 months of age
# Procedure: MRL/MpJfas^lpr (“mutant mice” or “Fas^lpr”) strains of mice have been described as useful models of Lupus due to their autoimmune lymphoproliferative pathology. In particular, the mutant mice show a cognitive deficit at approximately four months of age, which is not observed at two months of age. See, for example, Forster et al., 1988, Behav. Neural Biology, 49, 139-151.
# In the experiment, male MRL/MpJ Fas^lPr and normal MRL/MpJ++ mice of 8 weeks of age were weighed and administered 100 mg/kg of the test compound (either α-(2-ethoxyphenyl)-N-tert-butylnitrone or α-(4-ethoxyphenyl)-N-cyclohexylnitrone) or 1% methylcellulose vehicle by oral gavage daily for 8 to 9 weeks. At 4 months of age, the mice were tested for avoidance, discrimination, session criteria and acquisition in a one day T-maze task with a maximum of 25 trials. Criteria was met with four of five trials correct with the last two correct trials being consecutive in avoidance and discrimination.
Compound,CNS inflammatory deficit in acute EAE animals (clinical score) [1],further results
"CCOc1cc(C=[N+]([O-])C(C)(C)C)ccc1OC [Example 3, α-(3-Ethoxy-4-methoxyphenyl)-N-tert-butylnitrone]",reduced the CNS inflammatory deficit,–
"CCOc1ccc(C=[N+]([O-])C(C)(C)C)cc1 [Example 4, α-(4-Ethoxyphenyl)-N-tert-butylnitrone]",did not significantly reduce the CNS inflammatory deficit,–
"COc1cc(C=[N+]([O-])C(C)(C)C)ccc1OCc1ccccc1 [Example 5, α-(4-Benzyloxy-3-methoxyphenyl)-N-tert-butylnitrone]",did not significantly reduce the CNS inflammatory deficit,–
"CCOc1ccccc1C=[N+]([O-])C(C)(C)C [Example 7, α-(2-Ethoxyphenyl)-N-tert-butylnitrone]",did not significantly reduce the CNS inflammatory deficit,Aβ peptide/ibotenate-induced learning deficit [2]: reduced the Aβ peptide/ibotenate-induced learning deficit; acquisition in T-maze task (MRL/MpJ Fas^lpr mice): reduced acquisition values; avoidance in T-maze task (MRL/MpJ Fas^lpr mice): acquired avoidance skills earlier than untreated mutant mice
"CCCC[N+]([O-])=Cc1ccc(OCC)cc1 [Example 10, α-(4-ethoxyphenyl)-N-n-butylnitrone]",did not significantly reduce the CNS inflammatory deficit,–
"CCOc1ccc(C=[N+]([O-])C2CCCCC2)cc1 [Example 11, α-(4-Ethoxyphenyl)-N-cyclohexylnitrone]",reduced the CNS inflammatory deficit,acquisition in T-maze task (MRL/MpJ Fas^lpr mice): reduced acquisition values; avoidance in T-maze task (MRL/MpJ Fas^lpr mice): acquired avoidance skills earlier than untreated mutant mice
"CCOc1ccc(C=[N+]([O-])C2CCCCC2)cc1OC [Example 15, α-(4-Ethoxy-3-methoxyphenyl)-N-cyclohexylnitrone]",did not significantly reduce the CNS inflammatory deficit,–
"CCOc1cc(C=[N+]([O-])C(C)C)ccc1OC [Example 17, α-(3-Ethoxy-4-methoxyphenyl)-N-isopropyinitrone]",reduced the CNS inflammatory deficit,–
"CCCCCCOc1ccc(C=[N+]([O-])C2CCCCC2)cc1OCC [Example 22, α-(3-Ethoxy-4-hexyloxyphenyl)-N-cyclohexylnitrone]",reduced the CNS inflammatory deficit,–
"CCCCCCCCOc1ccc(C=[N+]([O-])C(C)(C)C)c(F)c1 [Example 29, α-(2-Fluoro-4-octyloxyphenyl)-N-tert-butylnitrone]",did not significantly reduce the CNS inflammatory deficit,–
"CC(C)(C)[N+]([O-])=Cc1ccc(OCc2ccccc2)cc1 [Example 41, α-(4-Benzyloxyphenyl)-N-tert-butylnitrone]",reduced the CNS inflammatory deficit,–
"[O-][N+](=Cc1ccc(OCc2ccccc2)cc1)C1CCCC1 [Example 42, α-(4-Benzyloxyphenyl)-N-cyclopentylnitrone]",reduced the CNS inflammatory deficit,–
"CCOc1cc(C=[N+]([O-])C(C)(C)CC(C)(C)C)ccc1OC [Example 45, α-(3-Ethoxy-4-methoxyphenyl)-N-tert-octylnitrone]",reduced the CNS inflammatory deficit,–
